The NIST ThermoML archive (doi:10.1021/je5009125)
Numbers after ± are expanded uncertainties.

Assay: xn = mol fraction of the nth substance listed
Details: Liquid; for viscosity: Vibrating wire viscometry; for mass density: Vibrating tube method

O=C=O [carbon dioxide] + O
viscosity (373.13 K, 70300 kPa, x1 = 0.0086): 0.302 ± 0.006 mPa·s | viscosity (373.13 K, 96400 kPa, x1 = 0.0086): 0.308 ± 0.006 mPa·s | mass density (373.38 K, 70590 kPa, x1 = 0.0271): 998.2 ± 0.7 kg/m3 | mass density (373.38 K, 100800 kPa, x1 = 0.0271): 1010.3 ± 0.7 kg/m3 | mass density (373.42 K, 15090 kPa, x1 = 0.0086): 967.8 ± 0.7 kg/m3 | mass density (373.42 K, 30180 kPa, x1 = 0.0086): 974.6 ± 0.7 kg/m3 | mass density (373.42 K, 50280 kPa, x1 = 0.0086): 983.2 ± 0.7 kg/m3 | mass density (373.42 K, 70390 kPa, x1 = 0.0086): 991.5 ± 0.7 kg/m3 | mass density (373.42 K, 100710 kPa, x1 = 0.0086): 1003.2 ± 0.7 kg/m3 | mass density (373.46 K, 30190 kPa, x1 = 0.0168): 977.8 ± 0.7 kg/m3 | mass density (373.46 K, 50320 kPa, x1 = 0.0168): 986.5 ± 0.7 kg/m3 | mass density (373.46 K, 70450 kPa, x1 = 0.0168): 994.9 ± 0.7 kg/m3 | mass density (373.46 K, 100740 kPa, x1 = 0.0168): 1006.7 ± 0.7 kg/m3 | viscosity (374.09 K, 70300 kPa, x1 = 0.0271): 0.309 ± 0.006 mPa·s | viscosity (374.09 K, 96400 kPa, x1 = 0.0271): 0.318 ± 0.006 mPa·s | viscosity (397.88 K, 30100 kPa, x1 = 0.0168): 0.233 ± 0.005 mPa·s | viscosity (397.88 K, 50200 kPa, x1 = 0.0168): 0.238 ± 0.006 mPa·s | viscosity (397.88 K, 70200 kPa, x1 = 0.0168): 0.244 ± 0.006 mPa·s | viscosity (397.88 K, 96300 kPa, x1 = 0.0168): 0.25 ± 0.006 mPa·s | viscosity (397.98 K, 30100 kPa, x1 = 0.0086): 0.231 ± 0.005 mPa·s | viscosity (397.98 K, 50200 kPa, x1 = 0.0086): 0.236 ± 0.006 mPa·s | viscosity (397.98 K, 70300 kPa, x1 = 0.0086): 0.242 ± 0.006 mPa·s | viscosity (397.98 K, 96400 kPa, x1 = 0.0086): 0.248 ± 0.006 mPa·s | mass density (398.48 K, 50470 kPa, x1 = 0.0271): 970 ± 0.7 kg/m3 | mass density (398.48 K, 70600 kPa, x1 = 0.0271): 979.3 ± 0.7 kg/m3 | mass density (398.48 K, 100800 kPa, x1 = 0.0271): 992.1 ± 0.7 kg/m3 | mass density (398.55 K, 15060 kPa, x1 = 0.0086): 948.3 ± 0.6 kg/m3 | mass density (398.55 K, 30170 kPa, x1 = 0.0086): 955.6 ± 0.6 kg/m3 | mass density (398.55 K, 30190 kPa, x1 = 0.0168): 958.2 ± 0.7 kg/m3 | mass density (398.55 K, 50290 kPa, x1 = 0.0086): 964.9 ± 0.7 kg/m3 | mass density (398.55 K, 50330 kPa, x1 = 0.0168): 967.8 ± 0.7 kg/m3 | mass density (398.55 K, 70390 kPa, x1 = 0.0086): 973.7 ± 0.7 kg/m3 | mass density (398.55 K, 70460 kPa, x1 = 0.0168): 976.7 ± 0.7 kg/m3 | mass density (398.55 K, 100710 kPa, x1 = 0.0086): 986 ± 0.7 kg/m3 | mass density (398.55 K, 100730 kPa, x1 = 0.0168): 989.4 ± 0.7 kg/m3 | viscosity (398.98 K, 50200 kPa, x1 = 0.0271): 0.241 ± 0.006 mPa·s | viscosity (398.98 K, 70200 kPa, x1 = 0.0271): 0.245 ± 0.006 mPa·s | viscosity (398.98 K, 96300 kPa, x1 = 0.0271): 0.254 ± 0.006 mPa·s | viscosity (422.91 K, 30000 kPa, x1 = 0.0168): 0.192 ± 0.005 mPa·s | viscosity (422.91 K, 50100 kPa, x1 = 0.0168): 0.196 ± 0.005 mPa·s | viscosity (422.91 K, 70200 kPa, x1 = 0.0168): 0.202 ± 0.005 mPa·s | viscosity (422.91 K, 96200 kPa, x1 = 0.0168): 0.208 ± 0.005 mPa·s | viscosity (423.82 K, 50200 kPa, x1 = 0.0271): 0.198 ± 0.005 mPa·s | viscosity (423.82 K, 70300 kPa, x1 = 0.0271): 0.204 ± 0.005 mPa·s | viscosity (423.82 K, 96500 kPa, x1 = 0.0271): 0.21 ± 0.005 mPa·s | mass density (423.84 K, 50460 kPa, x1 = 0.0271): 948 ± 0.7 kg/m3 | mass density (423.84 K, 70580 kPa, x1 = 0.0271): 958.1 ± 0.7 kg/m3 | mass density (423.84 K, 100810 kPa, x1 = 0.0271): 972.1 ± 0.7 kg/m3 | mass density (423.92 K, 15070 kPa, x1 = 0.0086): 925.9 ± 0.6 kg/m3 | mass density (423.92 K, 30180 kPa, x1 = 0.0086): 934 ± 0.6 kg/m3 | mass density (423.92 K, 50300 kPa, x1 = 0.0086): 944.2 ± 0.7 kg/m3 | mass density (423.92 K, 70420 kPa, x1 = 0.0086): 953.8 ± 0.7 kg/m3 | mass density (423.92 K, 100710 kPa, x1 = 0.0086): 967.1 ± 0.7 kg/m3 | mass density (423.93 K, 30200 kPa, x1 = 0.0168): 935.7 ± 0.6 kg/m3 | mass density (423.93 K, 50340 kPa, x1 = 0.0168): 946.2 ± 0.7 kg/m3 | mass density (423.93 K, 70460 kPa, x1 = 0.0168): 956 ± 0.7 kg/m3 | mass density (423.93 K, 100730 kPa, x1 = 0.0168): 969.7 ± 0.7 kg/m3 | viscosity (424.03 K, 30100 kPa, x1 = 0.0086): 0.19 ± 0.005 mPa·s | viscosity (424.03 K, 50200 kPa, x1 = 0.0086): 0.194 ± 0.005 mPa·s | viscosity (424.03 K, 70200 kPa, x1 = 0.0086): 0.199 ± 0.005 mPa·s | viscosity (424.03 K, 96400 kPa, x1 = 0.0086): 0.205 ± 0.005 mPa·s | viscosity (448.29 K, 30000 kPa, x1 = 0.0168): 0.163 ± 0.005 mPa·s | viscosity (448.29 K, 50100 kPa, x1 = 0.0168): 0.168 ± 0.005 mPa·s | viscosity (448.29 K, 70100 kPa, x1 = 0.0168): 0.173 ± 0.005 mPa·s | viscosity (448.29 K, 96200 kPa, x1 = 0.0168): 0.179 ± 0.005 mPa·s | viscosity (448.71 K, 50200 kPa, x1 = 0.0271): 0.169 ± 0.005 mPa·s | viscosity (448.71 K, 70200 kPa, x1 = 0.0271): 0.173 ± 0.005 mPa·s | viscosity (448.71 K, 96400 kPa, x1 = 0.0271): 0.179 ± 0.005 mPa·s | viscosity (448.93 K, 30000 kPa, x1 = 0.0086): 0.162 ± 0.005 mPa·s | viscosity (448.93 K, 50100 kPa, x1 = 0.0086): 0.167 ± 0.005 mPa·s | viscosity (448.93 K, 70200 kPa, x1 = 0.0086): 0.172 ± 0.005 mPa·s | viscosity (448.93 K, 96300 kPa, x1 = 0.0086): 0.178 ± 0.005 mPa·s | mass density (449.17 K, 50450 kPa, x1 = 0.0271): 923.6 ± 0.7 kg/m3 | mass density (449.17 K, 70570 kPa, x1 = 0.0271): 934.9 ± 0.7 kg/m3 | mass density (449.17 K, 100800 kPa, x1 = 0.0271): 950.3 ± 0.7 kg/m3 | mass density (449.2 K, 15080 kPa, x1 = 0.0086): 900.7 ± 0.6 kg/m3 | mass density (449.2 K, 30190 kPa, x1 = 0.0086): 909.9 ± 0.6 kg/m3 | mass density (449.2 K, 30210 kPa, x1 = 0.0168): 910.8 ± 0.6 kg/m3 | mass density (449.2 K, 50310 kPa, x1 = 0.0086): 921.3 ± 0.7 kg/m3 | mass density (449.2 K, 50360 kPa, x1 = 0.0168): 922.6 ± 0.7 kg/m3 | mass density (449.2 K, 70420 kPa, x1 = 0.0086): 931.8 ± 0.7 kg/m3 | mass density (449.2 K, 70470 kPa, x1 = 0.0168): 933.5 ± 0.7 kg/m3 | mass density (449.2 K, 100710 kPa, x1 = 0.0086): 946.4 ± 0.7 kg/m3 | mass density (449.2 K, 100740 kPa, x1 = 0.0168): 948.4 ± 0.7 kg/m3
